Test results as given in PMC11602115 (Journal of Medicinal Chemistry, 2017).

Legend:
IP = IP (Homo sapiens, UniProt P43119); assay: Recombinant human IP receptor cAMP assay after elimination of receptor reserve (transient CHO); type: cell-based; set-up: expressed in transfected cells; conditions: following elimination of receptor reserve
Source text: Additional In Vitro Assays
To determine the potency and efficacy of compounds in cAMP assays in the absence of receptor reserve effects, the cDNA sequence of the human IP receptor was subqcloned into an expression plasmid containing a ubiquitin promoter in place of the more commonly used CMV promoter. The ubiquitin […]
level of receptor expression after transfection into a suitable cell line. This plasmid was transiently transfected into CHO cells using lipofectamine, following standard protocols. The quantity of transfected plasmid DNA was titrated down from 16 µg to 1 ng per transfection using empty vector as carrier DNA.

EP3v6 [1] = target: T1, EP3v6 (Homo sapiens, UniProt P43115); assay: Melanophore dispersion assay, EP3v6; type: cell-based; set-up: expressed in transfected cells; host or cells: melanophores (transient, electroporation); conditions: for EC50 / EP3v6 % I.A: melanophore dispersion assay (Gi); for behaviour at EP3 in melanophore platform: potencies similar to binding affinities
T1 sequence (P43115 1-374 isoform P43115-4): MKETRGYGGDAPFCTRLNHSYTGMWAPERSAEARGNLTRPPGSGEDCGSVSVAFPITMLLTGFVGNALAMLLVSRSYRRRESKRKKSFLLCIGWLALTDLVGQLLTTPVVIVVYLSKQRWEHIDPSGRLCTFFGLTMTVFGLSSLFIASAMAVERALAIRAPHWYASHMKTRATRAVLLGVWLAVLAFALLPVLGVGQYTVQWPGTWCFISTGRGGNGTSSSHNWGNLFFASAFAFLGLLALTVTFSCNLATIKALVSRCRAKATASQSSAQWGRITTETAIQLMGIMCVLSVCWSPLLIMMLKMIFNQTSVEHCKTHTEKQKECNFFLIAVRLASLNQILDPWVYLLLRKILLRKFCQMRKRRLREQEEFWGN
Procedure: For the EP3v6 receptor functional assay, melanophores were transfected by electroporation using 20 μg of recombinant human EP3v6 receptor plasmid DNA per 400 μL of cell suspension. Transfected cells were immediately resuspended in fresh growth medium and plated in 384-well clear, polystyrene microplates. Plated cells were incubated at 27 °C for 48 h after transfection in order to achieve optimal receptor expression. To perform the assay, growth medium was removed from the assay plates and replaced with assay buffer (40 μL/well, 0.7× PBS, pH 7.3, supplemented with 20 nM melatonin to induce pigment aggregation). Following a 90 min incubation at room temperature, a 650 nm absorbance reading was collected and test compounds (10 μL per well) were transferred to the assay plates. Plates were incubated for 90 min at room temperature to allow compound-induced pigment redistribution to take place, and final absorbance reading was then collected. Test compounds were solubilized and serially diluted in DMSO, using 5-fold dilutions, to generate a 10-point dose–response curve with a top concentration of 10 μM (final assay concentration). Samples were then further diluted in assay buffer to achieve a 5× stock prior to addition to the assay plates. A SpectraMax absorbance plate reader (Molecular Devices, Inc.) was used for data collection.
Table Sup2: Data with some comparator compounds in functional assays. […]

EP3v6 [2] = target: T1, EP3v6; assay: Radioligand binding, EP3v6 ([3H]-PGE2); set-up: purchased MDS Pharma (Taiwan) and CEREP (France), contract assays; conditions: for Ki: cloned human receptor
Procedure: (§1) Additional (non-IP) receptor binding assays were carried out by MDS Pharma (Taiwan) and CEREP (France).

EP1 = target: T2, EP1 (Homo sapiens, UniProt P34995); assay: cAMP HTRF agonist assay, EP1; type: cell-based
T2 sequence (P34995 1-402): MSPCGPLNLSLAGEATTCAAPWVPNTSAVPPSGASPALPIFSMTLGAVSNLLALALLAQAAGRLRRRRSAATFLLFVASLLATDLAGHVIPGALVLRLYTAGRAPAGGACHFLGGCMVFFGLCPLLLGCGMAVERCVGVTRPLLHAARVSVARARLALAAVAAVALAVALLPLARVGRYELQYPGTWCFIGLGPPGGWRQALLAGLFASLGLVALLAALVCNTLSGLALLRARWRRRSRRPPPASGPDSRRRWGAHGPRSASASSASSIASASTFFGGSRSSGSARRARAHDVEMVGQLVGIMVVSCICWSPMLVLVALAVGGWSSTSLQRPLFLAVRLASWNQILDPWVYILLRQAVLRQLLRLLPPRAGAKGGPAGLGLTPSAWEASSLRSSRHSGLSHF
Source text: Table Sup2: Data with some comparator compounds in functional assays.
Compound DP1 EP1 EP2 EP3v6 EP4
EC50, µµµµM (% I.A) EC50, µµµµM (% I.A) EC50, µµµµM (% I.A) EC50, µµµµM (% I.A) EC50, µµµµM (% I.A)
n = 3 n = 2 n = 8 n = 6 n = 6 […]

CYP 2C19 = CYP 2C19 (Homo sapiens, UniProt P33261); assay: Cytochrome P450 inhibition, CYP2C19; type: in vitro ADME
EP2 = EP2 (Homo sapiens, UniProt P43116); assay: Radioligand binding, EP2 ([3H]-PGE2); set-up: purchased MDS Pharma (Taiwan) and CEREP (France), contract assays; conditions: cloned human receptor; mean of two determinations
Procedure: as §1

CYP 3A4 = CYP 3A4 (Homo sapiens, UniProt P08684); assay: Cytochrome P450 inhibition, CYP3A4; type: in vitro ADME
CYP 2C8 = CYP 2C8 (Homo sapiens, UniProt P10632); assay: Cytochrome P450 inhibition, CYP2C8; type: in vitro ADME
hERG channel = hERG channel (Homo sapiens, UniProt Q12809); assay: hERG patch clamp assay; type: cell-based; conditions: read-out: IC50 hERG channel functional activity
CYP 2D6 = CYP 2D6 (Homo sapiens, UniProt P10635); assay: Cytochrome P450 inhibition, CYP2D6; type: in vitro ADME
95 GPCR profile = assay: Wider binding screen (95 GPCR profile, MDS Pharma); conditions: 95 GPCR profile (MDS Pharma Inc.)
Source text: [15] 95 GPCR profile (MDS Pharma Inc.).

DP1 = DP1 (Homo sapiens, UniProt Q13258); assay: Radioligand binding, DP1 ([3H]-PGD2); conditions: cloned human receptor; mean of two determinations
Procedure: as §1

CYP 1A2 = CYP 1A2 (Homo sapiens, UniProt P05177); assay: Cytochrome P450 inhibition, CYP1A2; type: in vitro ADME
CYP 1A2, sequence (P05177 whole entry): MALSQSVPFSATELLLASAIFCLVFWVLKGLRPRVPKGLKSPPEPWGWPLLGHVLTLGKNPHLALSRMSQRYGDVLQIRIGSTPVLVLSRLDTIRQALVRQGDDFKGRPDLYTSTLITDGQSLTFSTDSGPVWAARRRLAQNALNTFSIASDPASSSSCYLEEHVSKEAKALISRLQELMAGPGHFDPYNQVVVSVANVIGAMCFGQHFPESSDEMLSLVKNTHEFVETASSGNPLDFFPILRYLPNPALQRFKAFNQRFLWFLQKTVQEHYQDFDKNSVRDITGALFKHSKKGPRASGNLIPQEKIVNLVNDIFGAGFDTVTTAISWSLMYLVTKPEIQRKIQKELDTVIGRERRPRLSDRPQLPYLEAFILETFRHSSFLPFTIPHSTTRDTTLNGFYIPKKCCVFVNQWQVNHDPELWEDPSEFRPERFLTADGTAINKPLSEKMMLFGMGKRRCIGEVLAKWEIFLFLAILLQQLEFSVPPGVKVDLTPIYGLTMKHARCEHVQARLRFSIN

CYP 2C19, sequence (P33261 whole entry): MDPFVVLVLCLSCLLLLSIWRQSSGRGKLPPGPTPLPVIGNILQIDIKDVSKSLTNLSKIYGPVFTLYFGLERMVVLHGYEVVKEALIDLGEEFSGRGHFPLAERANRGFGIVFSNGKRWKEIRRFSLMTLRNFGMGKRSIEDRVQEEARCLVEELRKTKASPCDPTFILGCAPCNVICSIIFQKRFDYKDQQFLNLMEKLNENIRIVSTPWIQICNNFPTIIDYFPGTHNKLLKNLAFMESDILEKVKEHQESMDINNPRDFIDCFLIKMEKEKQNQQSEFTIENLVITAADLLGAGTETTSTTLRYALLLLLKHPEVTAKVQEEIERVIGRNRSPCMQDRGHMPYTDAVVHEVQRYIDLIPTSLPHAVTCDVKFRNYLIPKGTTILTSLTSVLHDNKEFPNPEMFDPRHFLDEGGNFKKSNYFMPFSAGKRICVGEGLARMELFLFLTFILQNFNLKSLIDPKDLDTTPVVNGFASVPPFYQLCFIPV
CYP 2D6, sequence (P10635 whole entry): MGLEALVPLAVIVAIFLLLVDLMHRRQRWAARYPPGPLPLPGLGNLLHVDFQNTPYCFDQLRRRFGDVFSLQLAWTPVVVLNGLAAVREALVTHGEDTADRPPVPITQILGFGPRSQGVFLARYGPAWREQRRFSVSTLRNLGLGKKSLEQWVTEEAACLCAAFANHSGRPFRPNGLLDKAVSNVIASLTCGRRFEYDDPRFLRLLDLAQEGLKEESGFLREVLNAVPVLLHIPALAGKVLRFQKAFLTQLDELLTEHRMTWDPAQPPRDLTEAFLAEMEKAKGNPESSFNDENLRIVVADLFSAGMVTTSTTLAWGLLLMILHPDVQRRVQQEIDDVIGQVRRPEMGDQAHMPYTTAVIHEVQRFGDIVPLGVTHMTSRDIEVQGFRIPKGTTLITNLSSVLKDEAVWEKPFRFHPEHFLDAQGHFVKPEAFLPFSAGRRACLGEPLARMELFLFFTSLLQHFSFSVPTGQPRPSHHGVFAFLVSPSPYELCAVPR
CYP 3A4, sequence (P08684 whole entry): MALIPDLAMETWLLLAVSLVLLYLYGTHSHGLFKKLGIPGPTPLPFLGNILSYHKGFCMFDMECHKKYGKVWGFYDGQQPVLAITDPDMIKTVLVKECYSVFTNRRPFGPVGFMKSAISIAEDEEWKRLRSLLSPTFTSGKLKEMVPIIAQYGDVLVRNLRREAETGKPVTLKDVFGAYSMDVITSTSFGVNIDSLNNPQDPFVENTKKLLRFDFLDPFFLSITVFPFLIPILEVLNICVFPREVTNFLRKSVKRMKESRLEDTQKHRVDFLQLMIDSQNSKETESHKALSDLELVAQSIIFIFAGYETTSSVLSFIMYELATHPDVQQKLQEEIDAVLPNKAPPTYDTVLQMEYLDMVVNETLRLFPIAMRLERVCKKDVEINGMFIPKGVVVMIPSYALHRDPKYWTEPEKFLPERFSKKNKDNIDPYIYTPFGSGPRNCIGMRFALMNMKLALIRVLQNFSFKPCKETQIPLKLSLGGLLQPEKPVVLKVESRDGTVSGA
DP1, sequence (Q13258 whole entry): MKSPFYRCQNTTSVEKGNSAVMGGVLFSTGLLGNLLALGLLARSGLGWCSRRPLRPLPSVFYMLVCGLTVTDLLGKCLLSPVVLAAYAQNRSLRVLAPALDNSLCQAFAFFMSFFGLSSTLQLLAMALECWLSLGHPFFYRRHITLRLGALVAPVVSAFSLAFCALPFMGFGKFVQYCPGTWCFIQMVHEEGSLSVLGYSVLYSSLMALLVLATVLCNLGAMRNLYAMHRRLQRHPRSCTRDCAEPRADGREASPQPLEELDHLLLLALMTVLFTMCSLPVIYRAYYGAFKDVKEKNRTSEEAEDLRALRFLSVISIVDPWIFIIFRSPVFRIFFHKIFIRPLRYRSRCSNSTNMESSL
CYP 2C8, sequence (P10632 whole entry): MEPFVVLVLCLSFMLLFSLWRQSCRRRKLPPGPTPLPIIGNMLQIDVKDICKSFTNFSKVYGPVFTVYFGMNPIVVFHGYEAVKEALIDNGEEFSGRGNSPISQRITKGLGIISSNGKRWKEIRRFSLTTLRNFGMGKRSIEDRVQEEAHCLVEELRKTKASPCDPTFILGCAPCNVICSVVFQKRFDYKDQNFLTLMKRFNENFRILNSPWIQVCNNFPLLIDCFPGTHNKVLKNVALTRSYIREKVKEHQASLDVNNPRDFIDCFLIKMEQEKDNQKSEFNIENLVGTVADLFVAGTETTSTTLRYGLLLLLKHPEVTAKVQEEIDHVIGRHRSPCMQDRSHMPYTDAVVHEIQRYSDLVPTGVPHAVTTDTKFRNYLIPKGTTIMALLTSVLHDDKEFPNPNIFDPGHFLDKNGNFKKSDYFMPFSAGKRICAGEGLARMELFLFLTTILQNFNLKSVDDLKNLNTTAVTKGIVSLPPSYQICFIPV
EP2, sequence (P43116 whole entry): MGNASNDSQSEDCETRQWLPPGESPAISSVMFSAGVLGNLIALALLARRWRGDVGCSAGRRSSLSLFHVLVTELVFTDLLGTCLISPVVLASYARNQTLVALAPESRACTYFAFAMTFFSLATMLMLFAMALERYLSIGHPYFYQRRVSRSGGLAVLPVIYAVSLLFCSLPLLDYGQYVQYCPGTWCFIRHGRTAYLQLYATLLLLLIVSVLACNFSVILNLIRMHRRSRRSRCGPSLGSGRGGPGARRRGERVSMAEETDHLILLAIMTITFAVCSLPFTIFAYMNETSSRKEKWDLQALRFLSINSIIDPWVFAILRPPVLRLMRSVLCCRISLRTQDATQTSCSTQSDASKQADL
hERG channel, sequence (Q12809 whole entry): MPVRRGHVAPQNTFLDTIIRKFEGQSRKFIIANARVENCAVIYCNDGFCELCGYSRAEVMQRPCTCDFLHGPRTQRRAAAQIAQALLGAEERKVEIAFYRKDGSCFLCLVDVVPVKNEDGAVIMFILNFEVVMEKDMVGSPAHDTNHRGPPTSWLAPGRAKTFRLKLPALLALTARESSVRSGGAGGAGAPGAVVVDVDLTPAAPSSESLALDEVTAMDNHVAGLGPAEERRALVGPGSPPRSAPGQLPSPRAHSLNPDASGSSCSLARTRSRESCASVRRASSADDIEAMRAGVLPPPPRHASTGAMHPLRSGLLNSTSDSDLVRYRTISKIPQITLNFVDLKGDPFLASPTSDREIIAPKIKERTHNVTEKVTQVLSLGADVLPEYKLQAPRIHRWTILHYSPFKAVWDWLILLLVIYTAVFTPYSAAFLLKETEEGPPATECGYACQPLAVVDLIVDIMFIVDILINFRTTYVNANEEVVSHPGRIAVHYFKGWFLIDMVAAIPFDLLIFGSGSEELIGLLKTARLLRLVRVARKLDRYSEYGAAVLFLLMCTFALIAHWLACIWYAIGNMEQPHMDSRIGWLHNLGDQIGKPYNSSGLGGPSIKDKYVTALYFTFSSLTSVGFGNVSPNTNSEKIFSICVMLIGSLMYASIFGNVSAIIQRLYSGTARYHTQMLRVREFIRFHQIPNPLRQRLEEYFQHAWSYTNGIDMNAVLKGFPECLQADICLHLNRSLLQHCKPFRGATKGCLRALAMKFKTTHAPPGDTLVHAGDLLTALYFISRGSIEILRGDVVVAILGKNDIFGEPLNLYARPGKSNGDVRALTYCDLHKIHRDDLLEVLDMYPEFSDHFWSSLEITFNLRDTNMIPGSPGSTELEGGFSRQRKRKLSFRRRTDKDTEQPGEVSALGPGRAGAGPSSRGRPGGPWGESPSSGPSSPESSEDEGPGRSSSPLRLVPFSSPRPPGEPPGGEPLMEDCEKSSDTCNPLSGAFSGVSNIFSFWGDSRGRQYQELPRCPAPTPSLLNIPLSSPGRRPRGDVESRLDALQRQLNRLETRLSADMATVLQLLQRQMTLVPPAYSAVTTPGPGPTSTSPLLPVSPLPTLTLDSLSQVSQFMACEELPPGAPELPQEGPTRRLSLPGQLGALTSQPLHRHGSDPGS
IP, sequence (P43119 whole entry): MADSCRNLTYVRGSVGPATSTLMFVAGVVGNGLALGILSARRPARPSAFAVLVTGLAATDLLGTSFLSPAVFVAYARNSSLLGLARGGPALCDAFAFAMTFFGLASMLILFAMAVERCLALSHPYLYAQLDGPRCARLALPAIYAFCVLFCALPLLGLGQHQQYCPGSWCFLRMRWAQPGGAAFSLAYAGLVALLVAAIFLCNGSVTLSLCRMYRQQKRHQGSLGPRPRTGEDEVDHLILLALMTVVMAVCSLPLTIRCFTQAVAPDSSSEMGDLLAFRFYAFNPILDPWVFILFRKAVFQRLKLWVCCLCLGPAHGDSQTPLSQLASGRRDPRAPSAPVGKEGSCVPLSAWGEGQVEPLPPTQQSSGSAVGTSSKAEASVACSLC

SMILES | Efficacy (% vs. Iloprost) [95% CI], recombinant IP receptor cAMP (IP) | EC50 (EP3v6 [1]) | EP3v6 % I.A (EP3v6 [1]) | Ki (EP3v6 [2]) | EC50 (EP1) | EP1 % I.A (EP1) | IC50 (CYP 2C19) | Ki (EP2) | IC50 (CYP 3A4) | behaviour at EP3 in melanophore platform (EP3v6 [1]) | EP3/IP binding selectivity ratio (EP3v6 [2]; human EP3v6 Ki versus human IP Ki) | IC50 (CYP 2C8) | IC50 (hERG channel) | IC50 (CYP 2D6) | off-target liabilities in a wider screen (95 GPCR profile) | Ki (DP1) | IC50 (CYP 1A2)
CC#CCC(C)[C@H](O)/C=C/[C@@H]1[C@H]2C/C(=C/CCCC(=O)O)C[C@H]2C[C@H]1O (stereo partly drawn) [iloprost] | 100% | 280 nM | 68% | 3700 nM | 47 nM | 48% | – | – | – | – | – | – | – | – | – | – | –
O=C(O)COC[C@H]1CC[C@H](COC(=O)N(c2ccccc2)c2cccc(F)c2)CC1 [5g, 2-(((1r,4r)-4-(((3-Fluorophenyl)(phenyl)carbamoyloxy)methyl)cyclohexyl)methoxy)acetic Acid] | – | – | – | 210 nM | – | – | > 50 µM | 570 nM | > 50 µM | behaved as EP3 agonists | 30- to 50 fold | > 50 µM | > 30 µM | > 50 µM | no additional off-target liabilities were observed | 1850 nM | > 50 µM
O=C(O)COC[C@H]1CC[C@H](COC(=O)N(c2ccccc2)c2ccc(Cl)cc2)CC1 [5c, Sodium 2-(((1r,4r)-4-(((4-Chlorophenyl)(phenyl)carbamoyloxy)methyl)cyclohexyl)methoxy)acetate] | 67 [64, 71] % | 230 nM | 98% | 143 nM | > 10000 nM | – | > 50 µM | 610 nM | > 50 µM | behaved as EP3 agonists | – | > 50 µM | > 30 µM | > 50 µM | no additional off-target liabilities were observed | 2600 nM | > 50 µM
